Results taken from ChEMBL document CHEMBL1201862, “PubChem BioAssay data set” (2004).
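48-hour exposure; five concentrations; linearly interpolated endpoints. GI50 = concentration required for 50% inhibition of growth.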 Activity calls are given as the source filed them. Rule as the data show it: active = GI50 up to about 1.1 µM and inactive = higher.

What was measured:
Assay in all cases: NCI tumour cell line growth inhibition, 48 h
RXF 393 = test system: RXF 393
SK-MEL-5 = test system: SK-MEL-5
NCI/ADR-RES = test system: NCI/ADR-RES
M14 = test system: M14
NCI-H522 = test system: NCI-H522
SK-OV-3 = test system: SK-OV-3
HOP-92 = test system: HOP-92
K562 = test system: K562
HCT-15 = test system: HCT-15
NCI-H23 = test system: NCI-H23
OVCAR-5 = test system: OVCAR-5
SW-620 = test system: SW-620
SF-295 = test system: SF-295
MDA-N = test system: MDA-N
NCI-H460 = test system: NCI-H460
HOP-62 = test system: HOP-62
HT-29 = test system: HT-29
RPMI-8226 = test system: RPMI-8226
SF-539 = test system: SF-539
CCRF-CEM = test system: CCRF-CEM

Row | Compound | GI50 (RXF 393) | GI50 (SK-MEL-5) | GI50 (NCI/ADR-RES) | GI50 (M14) | GI50 (NCI-H522) | GI50 (SK-OV-3) | GI50 (HOP-92) | GI50 (K562) | GI50 (HCT-15) | GI50 (NCI-H23) | GI50 (OVCAR-5) | GI50 (SW-620) | GI50 (SF-295) | GI50 (MDA-N) | GI50 (NCI-H460) | GI50 (HOP-62) | GI50 (HT-29) | GI50 (RPMI-8226) | GI50 (SF-539) | GI50 (CCRF-CEM)
1 | CC(=O)c1sc2c(c1OC(=O)c1ccc(Cl)cc1Cl)c(=O)n(-c1ccccc1)c(=S)n2-c1ccccc1 | 0.382 µM (active) | 1.8 µM (inactive) | 1.05 µM (active) | 0.303 µM (active) | 1.2 µM (inactive) | 0.3 µM (active) | 0.78 µM (active) | 4.32 µM (inactive) | 2.18 µM | 5.83 µM (inactive) | 0.64 µM (active) | 3.97 µM (inactive) | 0.267 µM (active) | 0.741 µM (active) | 1.99 µM (inactive) | 1.41 µM (inactive) | 0.28 µM (active) | 0.213 µM (active) | 0.251 µM (active) | 0.26 µM (active)
2 | CCNC(=O)Cc1nc2c(O)ncnc2n1C1OC(CO)C(O)C1O (stereo not given) | > 100 µM (inactive) | > 100 µM (inactive) | > 100 µM (inactive) | > 100 µM (inactive) | > 100 µM (inactive) | > 100 µM (inactive) | > 100 µM (inactive) | > 100 µM (inactive) | > 100 µM | > 100 µM (inactive) | > 100 µM (inactive) | > 100 µM (inactive) | > 100 µM (inactive) | > 100 µM (inactive) | > 100 µM (inactive) | > 100 µM (inactive) | > 100 µM (inactive) | > 100 µM (inactive) | > 100 µM (inactive) | > 100 µM (inactive)
3 | COc1cc(C)c2c(=O)c3ccccc3n(C)c2c1 | 14.2 µM (inactive) | > 10 µM (inactive) | 30.5 µM (inactive) | 27.2 µM (inactive) | 2.54 µM (inactive) | 43.1 µM (inactive) | 7.43 µM (inactive) | 17.1 µM (inactive) | 22.3 µM | 24.3 µM (inactive) | 16.9 µM (inactive) | 45.3 µM (inactive) | 15.5 µM (inactive) | 55.6 µM (inactive) | 33.3 µM (inactive) | > 10 µM (inactive) | 11.8 µM (inactive) | > 10 µM (inactive) | 15.6 µM (inactive) | 21.9 µM (inactive)
4 | COC(=O)CNC(=O)C(Cc1ccccc1)NC(=O)c1ccc(-c2ccc(Cl)cc2Cl)o1 (stereo not given) | 18.4 µM (inactive) | 31.6 µM (inactive) | 21.8 µM (inactive) | 30.9 µM (inactive) | 13.4 µM (inactive) | 24.9 µM (inactive) | 12.4 µM (inactive) | 21.3 µM (inactive) | 23.3 µM | 23.7 µM (inactive) | 28.4 µM (inactive) | 34.2 µM (inactive) | 18.7 µM (inactive) | 24.8 µM (inactive) | 15.2 µM (inactive) | 26.8 µM (inactive) | 14.4 µM (inactive) | 12.3 µM (inactive) | 36.3 µM (inactive) | 10.1 µM (inactive)
5 | Nc1c2ccccc2nc2ccc(C(=O)Nc3ccc(S(N)(=O)=O)cc3)cc12 | > 100 µM (inactive) | > 100 µM (inactive) | > 100 µM (inactive) | > 100 µM (inactive) | > 100 µM (inactive) | > 100 µM (inactive) | > 100 µM (inactive) | > 100 µM (inactive) | > 100 µM | > 100 µM (inactive) | > 100 µM (inactive) | > 100 µM (inactive) | > 100 µM (inactive) | > 100 µM (inactive) | > 100 µM (inactive) | > 100 µM (inactive) | > 100 µM (inactive) | > 100 µM (inactive) | > 100 µM (inactive) | > 100 µM (inactive)
6 | CSc1c(C#N)c(N)nc2c(/N=N\c3ccc(Cl)cc3)c(N)nn12 | 2.55 µM (inactive) | 14.6 µM (inactive) | 16.8 µM (inactive) | 18.6 µM (inactive) | 6.19 µM (inactive) | 33 µM (inactive) | 3.29 µM (inactive) | 2.08 µM (inactive) | 2.26 µM | 2.6 µM (inactive) | 17.3 µM (inactive) | 2.16 µM (inactive) | 22.9 µM (inactive) | 8.04 µM (inactive) | 11.1 µM (inactive) | 10.7 µM (inactive) | 3.34 µM (inactive) | 2.6 µM (inactive) | 5.85 µM (inactive) | 2.17 µM (inactive)
7 | COC1=C(NC(C)=O)C(=O)c2nc3n(c2C1=O)CCC3 | 17.7 µM (inactive) | 17.5 µM (inactive) | 19.5 µM (inactive) | 18.2 µM (inactive) | 22.5 µM (inactive) | 41.6 µM (inactive) | 13.2 µM (inactive) | 26.7 µM (inactive) | 23.4 µM | 20.4 µM (inactive) | 18.7 µM (inactive) | 20.9 µM (inactive) | 20.5 µM (inactive) | 2.83 µM (inactive) | 27.5 µM (inactive) | 20.7 µM (inactive) | 26.5 µM (inactive) | 24.4 µM (inactive) | 18.6 µM (inactive) | 3.78 µM (inactive)
8 | COc1ccc2c(c1)C(=O)C1(C2)[C@H](c2ccccc2)C2C(=O)c3cc(OC)ccc3C2[C@H]1c1ccccc1 (stereo not given in full) | > 100 µM (inactive) | > 100 µM (inactive) | > 100 µM (inactive) | > 100 µM (inactive) | > 100 µM (inactive) | > 100 µM (inactive) | > 100 µM (inactive) | > 100 µM (inactive) | > 100 µM | 15.1 µM (inactive) | > 100 µM (inactive) | > 100 µM (inactive) | > 100 µM (inactive) | > 100 µM (inactive) | > 100 µM (inactive) | > 100 µM (inactive) | > 100 µM (inactive) | 43.7 µM (inactive) | > 100 µM (inactive) | 73.5 µM (inactive)
9 | Fc1cccc(F)c1C1SCc2nc3cc(Cl)ccc3n21 (stereo not given) | 48.8 µM (inactive) | 16 µM (inactive) | 24.2 µM (inactive) | 31 µM (inactive) | 39.7 µM (inactive) | 80.2 µM (inactive) | 36.6 µM (inactive) | 35.1 µM (inactive) | 28.6 µM | 28.5 µM (inactive) | 84.1 µM (inactive) | 38.7 µM (inactive) | 33.2 µM (inactive) | 32.8 µM (inactive) | 41.5 µM (inactive) | > 100 µM (inactive) | 15.2 µM (inactive) | 22.7 µM (inactive) | 80.9 µM (inactive) | 25.6 µM (inactive)
10 | C[C@H](Nc1nc(N)c(N=O)c(=O)n1C)C(=O)O | > 10 µM (inactive) | > 10 µM (inactive) | > 10 µM (inactive) | > 10 µM (inactive) | > 10 µM (inactive) | > 10 µM (inactive) | > 10 µM (inactive) | > 10 µM (inactive) | > 10 µM | > 10 µM (inactive) | > 10 µM (inactive) | > 10 µM (inactive) | > 10 µM (inactive) | > 10 µM (inactive) | > 10 µM (inactive) | > 10 µM (inactive) | > 10 µM (inactive) | > 10 µM (inactive) | > 10 µM (inactive) | > 10 µM (inactive)
